How the values were obtained:
[1] = biological target: T1, Edg-2 (Homo sapiens, UniProt Q92633); test: Intracellular calcium (FLIPR) assay, HTC cells expressing Edg-2; assay type: cell-based
T1 construct: expressed in transfected cells; host or cells: HTC rat hepatoma cells

[2] = tested on: human umbilical vein endothelial cells; test: Trans-matrigel chemotaxis / invasion assay with HUVECs (modified Boyden chamber); assay type: cell-based
Method: In addition to Edg-1, other Edg receptors are also implicated in S1P stimulated chemotaxis, including Edg-3 and Edg-6. To assess the relative roles of the Edg-1 receptors and Edg-3 receptors in S1P stimulated chemotaxis, the ability of S1P to evoke trans-matrigel chemotaxis was tested in the presence of the Edg-1 antagonist 101, the Edg-3 antagonist 301, and the combination of 101 and 301. These experiments were performed according to the migration and invasion assay protocols described in Section 7.12, below. The Edg-3 antagonist 301, 3-Methyl-2-phenyl-quinoline-4-carboxylic acid 4-fluoro-benzylamide, is extensively described in co-pending U.S. application Ser. No. 10/390,426, which is incorporated by reference in its entirety. 301 is identified as compound 101 in U.S. application Ser. No. 10/390,426. Further, 301 is commercially available from Specs (The Netherlands) as compound number AK-968/12971392.
(§1) S1P is a strong chemoattractant to human PBMCs. […] Several migration assays were performed to test this hypothesis and to determine the effect of Edg-1 agonists and antagonists on S1P mediated chemotaxis. The migration assays were performed according to the protocol described in Section 7.12, below. The results of theses assays are presented in FIG. 6, FIG. 7, FIG. 8, FIG. 9 and FIG. 13.
(§2) Cells were plated in a 24 well format using Fluoroblok filter insert plates ([…] pore size) or Fluoroblok matrigel coated filter insert plates (Becton Dickinson, San Diego, Calif.). The assay was a modified Boyden Chamber assay in which a cell suspension (1×10^5 cells/ml) was prepared in serum free medium and added to the top chamber. LPA or S1P (doses ranged from 0.1-10 μM in serum free medium) was added to the bottom chamber. Following a 20-24 hour incubation period, the number of cells migrating or invading into the lower chamber was quantitated by transferring the filter insert into a fresh 24-well plate containing 4 μg/ml calcein AM (Molecular Probes, Sunnyvale, Calif.) in Hank's Balanced Salt Solution and staining for one hour.
(§3) Detection was via fluorescent readout at 450 nm excitation/530 nm emission using a fluorimeter. The level of fluorescence correlated with cell number.

[3] = tested on: mouse T cells; test: Mouse T cell migration in Transwell chambers with matrigel; assay type: cell-based; conditions: in the presence of S1P; FIG. 14
Method: To further elucidate the role of the Edg-1 receptor in lymphocyte trafficking, migration of mouse T cells was analyzed in both in vitro and in vivo models. Migration of mouse T cells was first tested in Transwell chambers (Costar, Cambridge, Mass.) with polycarbonate fibers having a pore width of 8 μm, separated by a layer of matrigel. Stimulants S1P or exodus-2 were separately added to the bottom chamber. The effects of exodus-2 were tested alone, with S1P, and with S1P and Edg-1 antagonists 101 and 102.

[4] = tested on: human umbilical vein endothelial cells; test: S1P induced calcium response in human umbilical vein endothelial cells; assay type: cell-based; conditions: HUVEC; FIG. 4, 5
[5] = biological target: T2, human Edg-1 receptors (Homo sapiens, UniProt P21453); test: Intracellular calcium (FLIPR) assay, HTC cells expressing Edg-1; assay type: cell-based; set-up: Edg 1 IC50 μM; fused on or other part: in the chimera reading: the third intracellular loop (i3) of Edg-3 (S1PR3) in place of Edg-1's own
Method: (§4) The compounds were tested in HTC cells expressing human Edg-1 receptors. […] The compounds were tested in this recombinant system first, and subsequently tested in cell lines expressing Edg-1 (in addition to other Edg receptors).
(§5) […] receptors such as Edg-1, couple to calcium effector pathways, and result in increases in intracellular calcium following receptor activation (An, 1998, J. Cell Biochem. Supp 30-31:147-157). This biological response lends itself to a very efficient, high-throughput screen using a Fluorescence Imaging Plate Reader (FLIPR; Molecular Devices, Sunnyvale, Calif.). The FLIPR system is a real-time, cell-based assay system with continuous fluorescence detection using a cooled CCD camera. The FLIPR system was used to develop an Edg-1 receptor screen. Rat hepatoma cells stably expressing Edg-1/3i3 chimera or Edg-1 and Gqi were plated on 384-well plates and loaded with a calcium dye loading kit (Molecular Devices, Sunnyvale, Calif.) for 1 hour at room temperature. Cells were then placed on the FLIPR^384 (Molecular Devices, Sunnyvale, Calif.) and excited by an argon laser at 488 nm. The data for the entire 384-well plate was updated every second. An integrated robotic pipettor allowed for simultaneous compound addition into each individual well in the plate.

[6] = tested on: Null/Gqi; test: Intracellular calcium (FLIPR) assay, Null/Gqi control cells; assay type: cell-based; conditions: Rattus norvegicus; agonist
[7] = tested on: human peripheral blood mononuclear cells; test: Migration of human peripheral blood mononuclear cells; assay type: cell-based; conditions: chemoattractant; FIG. 9, 13
Method: as §1, §2, §3
Human PBMCs are isolated from the buffy coats of healthy donors from the Stanford Blood Center. […]

[8] = biological target: T2, human Edg-1 receptors; test: Intracellular calcium (FLIPR) assay, HTC cells expressing Edg-1; assay type: cell-based; set-up: expressed in transfected cells; host or cells: HTC rat hepatoma cells; conditions: agonist; Edg 1/Gqi
Method: as §4, §5

T1 sequence (Q92633 whole entry): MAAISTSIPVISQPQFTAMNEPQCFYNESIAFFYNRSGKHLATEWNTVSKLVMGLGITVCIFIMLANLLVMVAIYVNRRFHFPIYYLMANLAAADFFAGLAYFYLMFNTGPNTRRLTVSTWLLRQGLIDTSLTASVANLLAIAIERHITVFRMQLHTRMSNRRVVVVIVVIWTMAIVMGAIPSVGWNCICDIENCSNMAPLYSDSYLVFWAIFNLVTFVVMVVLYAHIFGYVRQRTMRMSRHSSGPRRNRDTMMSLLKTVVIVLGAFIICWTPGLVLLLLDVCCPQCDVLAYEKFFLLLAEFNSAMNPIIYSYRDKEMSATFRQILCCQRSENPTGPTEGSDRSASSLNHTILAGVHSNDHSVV
T2 sequence (P21453 whole entry, the tested form may be a part): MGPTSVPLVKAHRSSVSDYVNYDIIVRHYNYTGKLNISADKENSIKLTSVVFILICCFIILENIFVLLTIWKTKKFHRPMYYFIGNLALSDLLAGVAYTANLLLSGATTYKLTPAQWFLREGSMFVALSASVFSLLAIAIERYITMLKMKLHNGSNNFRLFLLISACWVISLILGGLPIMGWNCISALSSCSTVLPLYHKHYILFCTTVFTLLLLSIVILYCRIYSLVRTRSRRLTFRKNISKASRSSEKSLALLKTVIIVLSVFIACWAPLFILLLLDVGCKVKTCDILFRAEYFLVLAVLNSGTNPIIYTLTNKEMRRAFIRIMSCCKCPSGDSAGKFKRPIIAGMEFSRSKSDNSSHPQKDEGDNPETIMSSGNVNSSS

Row | IC50 ([1]; Table 2, LPA-stimulated) | inhibition of LPA-stimulated calcium increases in HTC cells expressing Edg-2 ([1]; concentrations as high as 20 μM) | inhibition of Edg-1 receptors ([5]; FIG. 1-3) | IC50 ([5]; Table 2, inhibition of S1P response, read-out: Edg 1 IC50) | melting point | EC50 ([1]; agonist) | calcium response in HTC cells expressing Edg-2 ([1]; agonist, concentrations as high as 25 μM) | EC50 [6] | EC50 [8] | Compound | inhibition of S1P-induced matrigel invasion ([2]; HUVEC, 10 μM (FIG. 6)) | effect on exodus-2-stimulated T cell migration [3] | inhibition of S1P induced calcium responses [4] | potency of invasion stimulation relative to S1P ([2]; HUVEC, FIG. 7) | stimulation of invasion of Human Umbilical Vein Endothelial cells ([2]; concentrations between 0.5-100 μM, FIG. 7) | migration of human peripheral blood mononuclear cells [7]
1 | > 20 µM | did not inhibit | specifically inhibited | 1690 nM | 150 to 152 °C |  |  |  |  | O=C(c1cccnc1)N1N=C(c2ccc(Br)cc2)CC1(O)C(F)(F)F (stereo not drawn) [Compound 102] | inhibits S1P-induced matrigel invasion | enhance exodus-2-stimulated migration | inhibits S1P induced calcium responses in a dose-dependent manner |  |  | 
2 |  |  |  |  |  | > 25 µM | did not elicit a calcium response | > 25 µM | 10 µM | COc1cc(C(=O)c2cc(Cl)ccc2N)cc(OC)c1OC [Compound 104, (2-Amino-5-chlorophenyl)-(3,4,5-trimethoxyphenyl)methanone] |  |  |  | significantly less potent that S1P | stimulates invasion | stimulates migration of human peripheral blood mononuclear cells at micromolar concentrations

From patent US20040147562A1, “Methods of treating conditions associated with an EDG-1 receptor” (priority 2002, published 2004)
